{
  "source": "patent US5985871A",
  "about": "“Benzoxazine compounds for enhancing synaptic response” (Cortex Pharmaceuticals, Inc., priority 1997, dated 1999)",
  "key": {"[1]": {"test_system": "AMPA receptors", "experiment": "field EPSP response in rat hippocampal slices", "format": "cell-based", "conditions": "for EPSP response, in words: comment on Table 1", "procedure": "Hippocampal tissue slices were perfused with artificial cerebrospinal fluid containing increasing concentrations of test compound at 15-30 minute intervals separated by perfusion with ACSF without the test compound, and the percent increases in EPSP amplitude and half-width before and after compound perfusion were determined.\nThe physiological effects of compounds in accordance with the invention can be tested in vitro with slices of rat hippocampus according to the following procedure. Excitatory responses (field EPSPs) are measured in hippocampal slices, which are maintained in a recording chamber continuously perfused with artificial cerebrospinal fluid (ACSF). During a 15-30 minute interval, the perfusion medium is switched to one containing various concentrations of the test compounds. Responses collected immediately before and at the end of drug perfusion were superimposed in order to calculate both the percent increase in EPSP amplitude and percent increase in the width of the response at one-half the peak height (half-width). An increase in either measure, that is, of the amplitude or half-width, can be used as an indicator of beneficial therapeutic activity.\nTo conduct these tests, the hippocampus was removed from anesthetized, 2 month old Sprague-Dawley rats and tissue slices (400 micrometers thick) were prepared and maintained in an interface chamber at 35° C. using conventional techniques [see, for example, Dunwiddie and Lynch, J. Physiol. […] A bipolar nichrome stimulating electrode was positioned in the dendritic layer (stratum radiatum) of the hippocampal subfield CA1 close to the border of subfield CA3.\nCurrent pulses (0.1 msec) through the stimulating electrode activate a population of the Schaffer-commissural (SC) fibers, which arise from neurons in the subdivision CA3 and terminate in synapses on the dendrites of CA1 neurons. Activation of these synapses causes them to release the transmitter glutamate. Glutamate binds to the post-synaptic AMPA receptors which then transiently open an associated ion channel and permit a sodium current to enter the postsynaptic cell. This current results in a voltage in the extracellular space (the field excitatory post-synaptic potential or field \"EPSP\") which is recorded by a high impedance recording electrode positioned in the middle of the stratum radiatum of CA1.\nFor the experiments summarized in Table 1, the intensity of the stimulation current was adjusted to produce half-maximal EPSPs (typically about 1.5-2.0 mV). Paired stimulation pulses were given every 40 sec with an interpulse interval of 200 msec (see below). The field EPSPs of the second response were digitized and analyzed to determine amplitude, half-width, and response area. If the responses were stable for 15-30 minutes (baseline), test compounds were added to the perfusion lines for a period of about 20 minutes. The perfusion was then changed back to regular ACSF.\nPaired-pulse stimulation was used because stimulation of the SC fibers, in part, activates interneurons that generate an inhibitory postsynaptic potential (IPSP) in the pyramidal cells of CA1. This feed forward IPSP typically sets in after the EPSP reaches its peak. It accelerates the repolarization and shortens the decay phase of the EPSP, and thus could partially mask the effects of the test compounds. One of the relevant features of the feed-forward IPSP is that it can not be reactivated for several hundred milliseconds following a stimulation pulse. This phenomenon can be employed to advantage to eliminate IPSP by delivering paired pulses separated by 200 milliseconds and using the second (\"primed\") response for data analysis."}, "[2]": {"test_system": "rats", "experiment": "8-arm radial maze memory test", "format": "in vivo, rat", "conditions": "for Maze MED (Minimum Effective Dose) / minimal effective dose: threshold dose for enhancing memory in rats, 8-arm radial maze; for minimal effective dose: Rattus norvegicus, read-out: Maze MED (Minimum Effective Dose)", "procedure": "The right bar of each pair represents the results for the same animals administered vehicle alone on alternate days of testing.\nAll of the data in FIG. 1 were obtained using the same group of ten rats. […] In other words, vehicle alone was administered to the group on days 1, 3 and 5, and compound at a selected dosage was administered on days 2 and 4. […] Error bars indicate the standard error of the mean (SEM). The asterisks (*) in the figure indicate data wherein p<0.05 by the paired t test."}, "[3]": {"conditions": "peripheral administration in humans; Guenzi and Zanetti 1990; cited from earlier work"}, "[4]": {"test_system": "brain AMPA receptors", "conditions": "metabolite of aniracetam; cited from earlier work"}, "[5]": {"conditions": "compound concentration 30 μM, rat hippocampal slice, field CA1"}, "[6]": {"conditions": "compound concentration 100 μM, rat hippocampal slice, field CA1"}},
  "data": [
    {"smiles": "O=C1c2cc3c(cc2OC2OCCN12)OCO3", "note": "(racemic) [Compound 1, 7,8-Dihydro-5aH, 10H-1,3-dioxolo[4,5-g]oxazolo[2,3-b][1,3]benzoxazin-10-one]", "values": [
      {"measurement": "EPSP Response (percent increase in amplitude of the EPSP response)", "setting": "[1]; [5]", "result": 34, "unit": "%"},
      {"measurement": "EPSP Response (percent increase in amplitude of the EPSP response)", "setting": "[1]; compound concentration 50 μM, resolved enantiomers of compound 1", "result": 80, "unit": "%"},
      {"measurement": "average total number of errors", "setting": "[2]; FIG. 1, 0.03, 0.1 and 0.5 mg/kg versus vehicle, ten rats", "result": "significant, dose-dependent reduction"},
      {"measurement": "average number of correct choices before the first error", "setting": "[2]; FIG. 1, 0.03, 0.1 and 0.5 mg/kg versus vehicle, ten rats, retention phase", "result": "significant, dose-dependent increase"},
      {"measurement": "Maze MED (Minimum Effective Dose)", "setting": "[2]", "result": 0.05, "unit": "mg/kg"}
    ]},
    {"smiles": "O=C1c2cc3c(cc2OC2OCCN12)OCO3", "note": "(single isomer, unassigned) [Column Fraction 1]", "values": [
      {"measurement": "EPSP Response (percent increase in amplitude of the EPSP response)", "setting": "[1]; compound concentration 50 μM, resolved enantiomers of compound 1, listed as first-eluting enantiomer", "result": 80, "unit": "%"},
      {"measurement": "Maze MED (Minimum Effective Dose)", "setting": "[2]; listed as active enantiomer of compound 1", "result": 0.01, "unit": "mg/kg"}
    ]},
    {"smiles": "O=C1c2cc3c(cc2OC2OCCN12)OCO3", "note": "(single isomer, unassigned) [Column Fraction 2]", "values": [
      {"measurement": "EPSP Response (percent increase in amplitude of the EPSP response)", "setting": "[1]; compound concentration 50 μM, resolved enantiomers of compound 1, listed as second-eluting enantiomer", "result": "does not detectably change"},
      {"measurement": "MED of less active enantiomer relative to active enantiomer", "setting": "[2]; enantiomers of compound 1, maze test", "result": 50, "unit": "fold"},
      {"measurement": "Maze MED (Minimum Effective Dose)", "setting": "[2]; listed as less active enantiomer", "result": 0.5, "unit": "mg/kg"}
    ]},
    {"smiles": "CC1CN2C(=O)c3cc4c(cc3OC2O1)OCO4", "note": "(single isomer, unassigned) [Compound 5.1, 7,8-Dihydro-7-methyl-5aH, 10H-1,3-dioxolo[4,5-g]oxazolo[2,3-b][1,3]benzoxazin-10-one]", "values": [
      {"measurement": "EPSP Response (percent increase in amplitude of the EPSP response)", "setting": "[1]; [5]", "result": 14, "unit": "%"}
    ]},
    {"smiles": "CC1CN2C(=O)c3cc4c(cc3OC2O1)OCO4", "note": "(single isomer, unassigned) [Compound 5.2, 7,8-Dihydro-7-methyl-5aH, 10H-1,3-dioxolo[4,5-g]oxazolo[2,3-b][1,3]benzoxazin-10-one]", "values": [
      {"measurement": "EPSP Response (percent increase in amplitude of the EPSP response)", "setting": "[1]; [5]", "result": 10, "unit": "%"}
    ]},
    {"smiles": "O=C1c2cc3c(cc2OC2CCCN12)OCO3", "note": "(centres unmarked) [Compound 1c, reference compound]", "values": [
      {"measurement": "EPSP Response (percent increase in amplitude of the EPSP response)", "setting": "[1]; [6]", "result": 25, "unit": "%"},
      {"measurement": "minimal effective dose", "setting": "[2]", "result": 1, "unit": "mg/kg"}
    ]},
    {"smiles": "O=C(NCCO)c1cc2c(cc1O)OCO2", "note": "[Compound 1i, 2-(2-Hydroxy-4,5-methylenedioxybenzamido)ethanol]", "values": [
      {"measurement": "EPSP response, in words", "setting": "[1]", "result": "increased EPSP response"},
      {"measurement": "EPSP Response (percent increase in amplitude of the EPSP response)", "setting": "[1]; [6]", "result": 8, "unit": "%"}
    ]},
    {"smiles": "O=C1c2cc3c(cc2OC2OCCN12)OCCO3", "note": "(centres unmarked) [Compound 2, 8,9-Dihydro-6aH, 11H-1,4-dioxan[2,3-g]oxazolo[2,3-b][1,3]benzoxazin-11-one]", "values": [
      {"measurement": "EPSP Response (percent increase in amplitude of the EPSP response)", "setting": "[1]; compound concentration 5 μM, rat hippocampal slice, field CA1", "result": 35, "unit": "%"},
      {"measurement": "minimal effective dose", "setting": "[2]", "result": 0.01, "unit": "mg/kg"}
    ]},
    {"smiles": "O=C1c2cc3c(cc2OC2CCCN12)OCCO3", "note": "(centres unmarked) [Compound 2c, reference compound]", "values": [
      {"measurement": "EPSP Response (percent increase in amplitude of the EPSP response)", "setting": "[1]; compound concentration >30 μM, rat hippocampal slice, field CA1", "result": 25, "unit": "%"},
      {"measurement": "minimal effective dose", "setting": "[2]", "result": 0.1, "unit": "mg/kg"}
    ]},
    {"smiles": "CC1(C)Oc2cc3c(cc2O1)C(=O)N1CCOC1O3", "note": "(centres unmarked) [Compound 3, 7,8-Dihydro-2,2-dimethyl-5aH, 10H-1,3-dioxolo[4,5-g]oxazolo[2,3-b][1,3]benzoxazin-10-one]", "values": [
      {"measurement": "EPSP Response (percent increase in amplitude of the EPSP response)", "setting": "[1]; [5]", "result": 33, "unit": "%"}
    ]},
    {"smiles": "O=C1c2cc3c(cc2OC2SCCN12)OCO3", "note": "(centres unmarked) [Compound 4, 7,8-Dihydro-5aH, 10H-1,3-dioxolo[4,5-g]thiazolo[2,3-b][1,3]benzoxazin-10-one]", "values": [
      {"measurement": "EPSP response, in words", "setting": "[1]", "result": "About the same activity"},
      {"measurement": "EPSP Response (percent increase in amplitude of the EPSP response)", "setting": "[1]; [5]", "result": 20, "unit": "%"}
    ]},
    {"smiles": "CC1COC2Oc3cc4c(cc3C(=O)N12)OCO4", "note": "(centres unmarked) [Compound 6, 7,8-Dihydro-8-methyl-5aH, 10H-1,3-dioxolo[4,5-g]oxazolo[2,3-b][1,3]benzoxazin-10-one]", "values": [
      {"measurement": "EPSP Response (percent increase in amplitude of the EPSP response)", "setting": "[1]; [6]", "result": 10, "unit": "%"}
    ]},
    {"smiles": "O=C1c2cc3c(cc2OC2OCCCN12)OCO3", "note": "(centres unmarked) [Compound 7, 8,9-Dihydro-5aH, 7H, 10H-1,3-dioxolo[4,5-g][1,3]oxazino[2,3-b][1,3]benzoxazin-11-one]", "values": [
      {"measurement": "EPSP Response (percent increase in amplitude of the EPSP response)", "setting": "[1]; [5]", "result": 15, "unit": "%"}
    ]},
    {"smiles": "O=C1c2cc3c(cc2OC2CCCCN12)OCO3", "note": "(centres unmarked) [Compound 7c, reference compound]", "values": [
      {"measurement": "EPSP Response (percent increase in amplitude of the EPSP response)", "setting": "[1]; compound concentration 300 μM, rat hippocampal slice, field CA1", "result": 25, "unit": "%"}
    ]},
    {"smiles": "CC12OCCN1C(=O)c1cc3c(cc1O2)OCO3", "note": "(centres unmarked) [Compound 8, 7,8-Dihydro-5a-methyl-10H-1,3-dioxolo[4,5-g]oxazolo[2,3-b][1,3]benzoxazin-10-one]", "values": [
      {"measurement": "EPSP Response (percent increase in amplitude of the EPSP response)", "setting": "[1]; [6]", "result": 8, "unit": "%"}
    ]},
    {"smiles": "COc1ccc(C(=O)N2CCCC2=O)cc1", "note": "[aniracetam, N-anisoyl-2-pyrrolidinone]", "values": [
      {"measurement": "fraction of drug converted to anisoyl-GABA", "setting": "[3]", "result": "about 80%"}
    ]},
    {"smiles": "COc1ccc(C(=O)NCCCC(=O)O)cc1", "note": "[anisoyl-GABA]", "values": [
      {"measurement": "aniracetam-like effects", "setting": "[4]", "result": "only weak aniracetam-like effects"}
    ]}
  ]
}
